# “Also recorded” adds a separate entry of the source. Read-outs that look alike come from different tables or passages of the source.
# Assays:
# [1] = Degree of fusion with anionic liposome (Example 9); conditions: liposome compound/cholesterol/PEG-Glu2C18, 37°C, 30 minutes
# Description: In a manner similar to that in Example 2, the degree of fusion of the pH-responsive liposome with respect to the anionic liposome (DOPC/DPPG, 5/1 (molar ratio)) was calculated. The measurement method was as follows. 50 μL of 1 mM anionic liposome and 50 μL of 9 mM (converted to the mixed lipid basis) pH-responsive liposome were added to 1.9 mL of each of acetate buffers with different pHs and allowed to stand at 37° C. 30 minutes later, […] of the mixture was dividedly poured and added to 1.9 mL of HEPES buffer (pH 7.4). The resultant mixture was transferred to a quartz cell and subjected to fluorescence measurement (λex: 460 nm, 530 nm). The measurement was carried out using RF-5300PC manufactured by Shimadzu.
# [2] = Concentration of Compound 3 in rat plasma after i.v. liposome (LC/MS/MS); format: in vivo, SD rat; conditions: male, Sprague-Dawley, iv, 40 mg/kg; for AUC / Cmax / half-life / concentration at 5 min / concentration at 1 h / concentration at 2 h / concentration at 6 h / concentration at 24 h: rat, plasma; for concentration at 5 min / concentration at 1 h / concentration at 2 h / concentration at 6 h / concentration at 24 h: SD rat, i.v. BSA-encapsulated pH-responsive liposome ([Lipid]=20 mg/mL, 2 ml/kg), read-out: GGLG concentration in plasma
# Description: (§1) A pH-responsive liposome was prepared from mixed lipid (Compound (3)/cholesterol/PEG-Glu2C18=5/5/0.03 (mol)) using the high-pressure extrusion method. In the preparation, the particle size of the liposome was adjusted to 200 to 250 nm. Further, BSA was encapsulated in the internal aqueous phase. The prepared pH-responsive liposome ([Lipid]=20 mg/mL) was intravenously administered to a SD rat (male, body weight of 300 g or less) via the tail vein in an amount of 2 ml/kg under ether anesthesia. The number of rats used was N=3. Prior to the administration and 5 minutes, 1, 2, 6 and 24 hours after the administration, blood was collected (about 500 μL). The obtained blood was subjected to centrifugation (2,000×g, 20 minutes) to obtain plasma (liposome-suspended plasma), and this was preserved at −80° C. Further, after blood was collected 24 hours after the administration, the liver, spleen, lung and kidney were isolated, the wet weight thereof was measured, and these materials were preserved at −80° C. After that, homogenization was carried out using a saline in an amount 4 times greater than the wet weight of the organs.
# (§2) A material in which the procedure is carried out until 100 μL of methanol is added to 10 μL of homogenate solution of plasma and the organs was used as a sample for measurement of specimen.
# (§3) To the above-described sample for measurement, a solution to which an internal standard material (1,5-dihexadecyl N-glutamyl-L-glutamate (αGlu-Glu2C16)) was added (900 μL) was added, and the mixture was subjected to vortex stirring. After that, the mixture was allowed to stand at room temperature for at least 10 minutes. After that, the mixture was subjected to vortex stirring again and centrifuged at 4° C. at 10,000×g for 15 minutes. The obtained supernatant was transferred to an LC vial.
# As a column, CAPLCELLPAK C18 MG (Shiseido Co., Ltd.) (3 μm, 2.0×50 mm) was used, and the column temperature was set at 40° C. Gradient elution was carried out using 0.1% acetic acid aqueous solution (A)-0.1% methanol acetate (B). The flow rate was 0.25 mL/min. The temperature of the autoinjector was set at 15° C. Regarding a needle washing solution, chloroform/methanol (1:1) was used for a washing pump, and methanol was used for a washing port.
# The eluent that was separated by HPLC was subjected to positive ESI ionization and measured in the MRM mode.
# An analyte for producing a calibration curve for measurement of plasma was measured, and a calibration curve of 1-300 μg/mL of plasma was prepared with weighting of 1/x^2 and Quadratic. The peak area of the analyte for measurement of plasma/IS peak area was substituted into the obtained formula of the calibration curve to calculate the concentration of Compound 3 in plasma. FIG. 8 is a graph showing the results. In FIG. 8, (-⋄-), (--[…]--) and (--Δ--) show the results of animal 1, animal 2 and animal 3, respectively.
# [3] = Concentration of Compound 3 in rat tissue 24 hours after i.v. liposome (LC/MS/MS); format: in vivo; conditions: for concentration at 24 h: male, SD, rat, iv, 24 hours after i.v. liposome
# Description: as §1, §2, §3
# An analyte for producing a calibration curve for measurement of tissue was measured, and a calibration curve of 1-100 μg/ml was prepared with weighting of 1/x^2 and Quadratic. The peak area of the analyte for measurement of tissue/IS peak area was substituted into the obtained formula of the calibration curve to calculate the concentration of Compound 3 in tissue (in the calculation, the specific gravity of the tissue homogenate was regarded as 1 g/mL). FIG. 9 is a graph showing the results.
# [4] = SD rat plasma, i.v. liposome ([Lipid]=20 mg/mL, 2 ml/kg), animal 1
# [5] = SD rat plasma, i.v. liposome ([Lipid]=20 mg/mL, 2 ml/kg), Average
# [6] = SD rat plasma, i.v. liposome ([Lipid]=20 mg/mL, 2 ml/kg), animal 2
# [7] = SD rat plasma, i.v. liposome ([Lipid]=20 mg/mL, 2 ml/kg), animal 3
smiles,measurement,setting,value
CCCCCCCCCCCCCCCCOC(=O)CCC(NC(=O)C(CCCCNC(=O)C(N)CCC(=O)O)NC(=O)C(N)CCC(=O)O)C(=O)OCCCCCCCCCCCCCCCC (stereo not shown) [Compound 3],degree of fusion,[1]; pH 5.5 (maximum),about 60%
same,degree of fusion,[1]; pH 7.4,about 15%
same,Tmax,[2]; [4],4.98 min
same,AUC,[2]; [5],309 µg·h/mL
same,Cmax,[2]; [5],132000 ng/mL
same,half-life,"[2]; SD rat plasma, i.v. liposome ([Lipid]=20 mg/mL, 2 ml/kg), Average, read-out: t½ (converted)",4.84 h
same,AUC,[2]; [4],266 µg·h/mL
same,Cmax,[2]; [4],105000 ng/mL
same,half-life,"[2]; SD rat plasma, i.v. liposome ([Lipid]=20 mg/mL, 2 ml/kg), animal 1, read-out: t½ (converted)",5.03 h
same,AUC,[2]; [6],364 µg·h/mL
same,Cmax,[2]; [6],153000 ng/mL
same,half-life,"[2]; SD rat plasma, i.v. liposome ([Lipid]=20 mg/mL, 2 ml/kg), animal 2, read-out: t½ (converted)",4.31 h
same,AUC,[2]; [7],297 µg·h/mL
same,Cmax,[2]; [7],136000 ng/mL
same,half-life,"[2]; SD rat plasma, i.v. liposome ([Lipid]=20 mg/mL, 2 ml/kg), animal 3, read-out: t½ (converted)",5.18 h
same,concentration at 5 min,[2]; Average value (N=3),132000 ng/mL
same,concentration at 5 min,[2]; animal 1,105000 ng/mL
same,concentration at 5 min,[2]; animal 2,153000 ng/mL
same,concentration at 5 min,[2]; animal 3,136000 ng/mL
same,concentration at 1 h,[2]; Average value (N=3),53600 ng/mL
same,concentration at 1 h,[2]; animal 1,44700 ng/mL
same,concentration at 1 h,[2]; animal 2,62400 ng/mL
same,concentration at 1 h,[2]; animal 3,53500 ng/mL
same,concentration at 2 h,[2]; Average value (N=3),31200 ng/mL
same,concentration at 2 h,[2]; animal 1,25800 ng/mL
same,concentration at 2 h,[2]; animal 2,39300 ng/mL
same,concentration at 2 h,[2]; animal 3,28500 ng/mL
same,concentration at 6 h,[2]; Average value (N=3),8900 ng/mL
same,concentration at 6 h,[2]; animal 1,8390 ng/mL
same,concentration at 6 h,[2]; animal 2,10200 ng/mL
same,concentration at 6 h,[2]; animal 3,8120 ng/mL
same,concentration at 24 h,[2]; Average value (N=3),1130 ng/mL
same,concentration at 24 h,[2]; animal 1,1020 ng/mL
same,concentration at 24 h,[2]; animal 2,1200 ng/mL
same,concentration at 24 h,[2]; animal 3,1170 ng/mL
same,half-life,"[2]; from concentration in rat plasma, i.v. pH-responsive liposome, read-out: half-life of Compound 3 (converted)",4.8 h
same,distribution of Compound 3 in the organs,"[3]; SD rat, 24 hours after the administration of pH-responsive liposome",mainly localized in the liver and spleen; also recorded: Almost no Compound 3 was localized in the kidney and lung
same,concentration at 24 h,"[3]; liver, Liver, Average value",76800 ng/g
same,concentration at 24 h,"[3]; liver, Liver, animal 1",110000 ng/g
same,concentration at 24 h,"[3]; liver, Liver, animal 2",64400 ng/g
same,concentration at 24 h,"[3]; liver, Liver, animal 3",55600 ng/g
same,concentration at 24 h,"[3]; lung, Lung, Average value",5600 ng/g
same,concentration at 24 h,"[3]; lung, Lung, animal 1",5600 ng/g
same,concentration at 24 h,"[3]; lung, Lung, animal 2",5020 ng/g
same,concentration at 24 h,"[3]; lung, Lung, animal 3",6170 ng/g
same,concentration at 24 h,"[3]; spleen, Spleen, Average value",33500 ng/g
same,concentration at 24 h,"[3]; spleen, Spleen, animal 1",30400 ng/g
same,concentration at 24 h,"[3]; spleen, Spleen, animal 2",33400 ng/g
same,concentration at 24 h,"[3]; spleen, Spleen, animal 3",36700 ng/g
